“And” between values parts separate entries of the source, which are not always exact repeats. Equal entries are not always repeated. Ends that are not written are not given here.
Columns and labels:
B. cereus DPC 6088 = experiment: Broth MIC, Gram positive; type: cell-based, Bacillus cereus; conditions: broth microtitre, BSA pre-treated plates, 10^5 cfu ml^−1, 2-fold dilutions from 10 µM, 16 h 37°C, purified peptide, mean of triplicate assays
Protocol: (§1) Minimum inhibitory concentration determinations for Gram positive organisms were carried out in triplicate in microtitre plates (Sarstedt). 96 well microtitre plates were pre-treated with bovine serum albumin (BSA) prior to addition of the peptides. Briefly, to each well of the microtitre plate 200 µL of phosphate buffered saline (PBS) containing 1% (w/v) bovine serum albumin (PBS/BSA) was added and incubated at 37°C for 30 min. The wells were washed with 200 µL PBS and allowed to dry. Target strains were grown overnight in the appropriate conditions and medium, subcultured into fresh broth and allowed to grow to an OD600 of ∼0.5, diluted to a final concentration of 10^5 cfu ml^−1 in a volume of 0.2 ml. Wild type nisin and nisin mutant peptides were adjusted to a 10 µM (S. mitis, B. cereus), 7.5 µM (L. monocytogenes), 5 µM (hVISA) 2.5 µM (MRSA, E. durans), or 500 nM (L. lactis strains) starting concentration and 2-fold serial dilutions of each peptide were added to the target strain.

B. cereus DPC 6089 = experiment: Broth MIC, Gram positive; type: cell-based, Bacillus cereus; conditions: broth microtitre, BSA pre-treated plates, 10^5 cfu ml^−1, 2-fold dilutions from 10 µM, 16 h 37°C, purified peptide, mean of triplicate assays
Protocol: as §1

C. sakazakii DPC 6440 [1] = experiment: Agarose gel diffusion assay, purified peptide; type: cell-based, Cronobacter sakazakii; conditions: purified peptide 60 µM
Protocol: (§2) Agarose-based deferred antagonism assays were carried out as follows: GM17/LB (0.03%) underlay was prepared with 10 mM sodium phosphate buffer (SPB) at pH 7.4 to which was added agarose (1% w/v agarose), autoclaved and cooled to 50°C. Bacteria grown to mid-logarithmic phase were harvested by centrifugation and washed with 10 mM SPB at pH 7.4. Bacteria were then added to 15 mls cooled underlay medium to reach a concentration of 2×10^7 colony-forming units (CFU)/mL. The inoculated medium was rapidly transferred into sterile Petri plates, allowed to solidify and dried. Wells (4.6 mm in diameter) were then made in the seeded plates. 10 µl volumes of cell-free supernatant from overnight nisin derivative producing cultures or resuspended purified peptides were then added to the wells and the plates incubated at 30°C (L. lactis) or 37°C (Gram positive strains) or RT (Gram negative strains) for 3 hours. Polymyxin B (Sigma Aldrich) was used at a concentration of 20 µg/ml. The plates were then overlaid with 15 mls of autoclaved double strength GM17 (L. lactis) or LB (Gram negatives) agarose (1% w/v agarose) overlay medium precooled to 50°C. The plates were then incubated overnight at the relevant temperature.

[2] = test system: Salmonella enterica serovar Typhimurium UK1; experiment: Agarose gel diffusion assay, purified peptide; type: cell-based; conditions: purified peptide 60 µM
Protocol: as §2

E. coli 0157-H7 [3] = experiment: Agarose gel diffusion assay, purified peptide; type: cell-based; conditions: purified peptide 60 µM
Protocol: as §2

C. sakazakii DPC 6440 [4] = experiment: Kill curve analysis; type: cell-based, Cronobacter sakazakii; conditions: 33 mg/L purified peptide, 2×10^5 cfu ml^−1, 37°C for 1 hour
Protocol: (§3) Using purified peptide in each case, 10 mM sodium phosphate buffer washed C. sakazakii, E. coli and Salmonella strains were diluted to a final concentration of 2×10^5 cfu ml^−1 and were exposed to nisin A, S29G and S29A at a concentration of 33 mg/L. Following incubation at 37°C for 1 hour, bacterial growth was monitored through plate counts.

C. sakazakii DPC 6440 [5] = experiment: Broth MIC, Gram negative; type: cell-based, Cronobacter sakazakii; conditions: cells washed in 10 mM SPB pH 7.4, 2×10^5 CFU/mL, 2 h RT with peptide, then double strength LB, RT overnight, mean of triplicate assays
Protocol: (§4) Minimum inhibitory concentration determinations for Gram negative strains were carried out in triplicate in 96 well microtitre plates. Briefly, bacteria (E. coli, C. sakazakii and Salmonella) grown to mid-logarithmic phase were harvested by centrifugation, washed with 10 mM SPB at pH 7.4, and diluted to 2×10^5 colony-forming units (CFU)/mL in SPB. Nisin and nisin derivative peptides were resuspended in sterile HPLC water and 50 µL aliquots were added to wells containing 50 µL of 2×10^5 CFU of bacteria. Plates were incubated at RT for two hours with agitation. Double strength Luria–Bertani (LB) broth (100 µL) was added and the plates were incubated at RT overnight, the MIC was taken as the lowest concentration at which growth was inhibited.

S. aureus RF122 = experiment: Deferred antagonism assay of producing strains; type: cell-based
Protocol: (§5) Deferred antagonism assays were performed by replicating strains on GM17 agar plates and allowing them to grow overnight before overlaying with either GM17/BHI/TSB-YE/MH agar (0.75% w/v agar) seeded with the appropriate indicator strain. For higher throughput screening of the S29X bank, deferred antagonism assays were performed by replicating strains using a 96 pin replicator (Boekel) or spotting 5 µl of a fresh overnight culture on GM17 agar plates and allowing them to grow overnight. Following overnight growth the strains were subjected to UV radiation for 30 minutes prior to overlaying with either GM17/BHI/TS/MH agar (0.75% w/v agar) seeded with the appropriate indicator.

L. monocytogenes LO28 = experiment: Deferred antagonism assay of producing strains; type: cell-based; conditions: L. monocytogenes LO28, data not shown
Protocol: as §5

S. aureus SA113 = experiment: Deferred antagonism assay of producing strains; type: cell-based; conditions: zone of inhibition around producer colony
Protocol: as §5

Lactococcus lactis HP = experiment: Agarose-based assay of cell-free supernatants of S29X producing strains
Method in brief: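 Deferred antagonism in 1% agarose underlay (10 mM sodium phosphate, pH 7.4) seeded with mid-log indicator bacteria at 2×10^7 CFU/mL. Cell-free supernatant or purified peptide placed in 4.6 mm wells, held 3 h at 30 °C (L. lactis), 37 °C (Gram-positives) or RT (Gram-negatives). Plates were then overlaid with GM17 or LB agarose and incubated overnight.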

[6] = test system: Salmonella enterica serovar Typhimurium UK1; experiment: Broth MIC, Gram negative; type: cell-based; conditions: cells washed in 10 mM SPB pH 7.4, 2×10^5 CFU/mL, 2 h RT with peptide, then double strength LB, RT overnight, mean of triplicate assays
Protocol: as §4

E. coli 0157-H7 [7] = experiment: Broth MIC, Gram negative; type: cell-based; conditions: cells washed in 10 mM SPB pH 7.4, 2×10^5 CFU/mL, 2 h RT with peptide, then double strength LB, RT overnight, mean of triplicate assays
Protocol: as §4

E. coli = experiment: Kill curve analysis; type: cell-based; conditions: 33 mg/L purified peptide, 2×10^5 cfu ml^−1, 37°C for 1 hour
Protocol: as §3

E. durans 5133 = experiment: Broth MIC, Gram positive; type: cell-based, Enterococcus durans; conditions: broth microtitre, BSA pre-treated plates, 10^5 cfu ml^−1, 2-fold dilutions from 2.5 µM, 16 h 37°C, purified peptide, mean of triplicate assays
Protocol: as §1

S. mitis UCC5000 = experiment: Broth MIC, Gram positive; type: cell-based, Streptococcus mitis; conditions: broth microtitre, BSA pre-treated plates, 10^5 cfu ml^−1, 2-fold dilutions from 10 µM, 16 h 37°C, purified peptide, mean of triplicate assays
Protocol: as §1

S. typhimurium UK-1 = experiment: Kill curve analysis; type: cell-based, Salmonella enterica serovar Typhimurium; conditions: 33 mg/L purified peptide, 2×10^5 cfu ml^−1, 37°C for 1 hour
Protocol: as §3

S29G: bioengineered nisin A derivative with a serine to glycine change at position 29 (ITSISLCTPGCKTGALMGCNMKTATCHCGIHVSK; thioether (positions not given here); not fully specified (residues 2, 5, 33, bridges); UniProt P13068 24-57, looked up, variant S29G)
MIC (B. cereus DPC 6088): 4.19 mg/L and 1.25 µM | MIC (B. cereus DPC 6089): 4.19 mg/L and 1.25 µM | Zone of inhibition, agarose gel diffusion (C. sakazakii DPC 6440 [1]; C. sakazakii DPC 6440, mean of triplicate assays): 10.79±0.16 mm | Zone as % wt (C. sakazakii DPC 6440 [1]; C. sakazakii DPC 6440, relative to nisin A): 110 % wt | Zone of inhibition, agarose gel diffusion ([2]; Salmonella Typhimurium UK1, mean of triplicate assays): 10.94±0.24 mm | Zone as % wt ([2]; Salmonella Typhimurium UK1, relative to nisin A): 111 % wt | Zone of inhibition, agarose gel diffusion (E. coli 0157-H7 [3]; E. coli 0157-H7, mean of triplicate assays): 11.10±0.05 mm | Zone as % wt (E. coli 0157-H7 [3]; E. coli 0157-H7, relative to nisin A): 113 % wt | Killing compared with nisin A (plate counts) (C. sakazakii DPC 6440 [4]): greater activity than wildtype nisin A | MIC (C. sakazakii DPC 6440 [5]): 6.28 mg/L and 1.875 µM | Bioactivity of producer relative to nisin A producer (S. aureus RF122): increases the bioactivity | Bioactivity of producer relative to nisin A producer (L. monocytogenes LO28): comparable to that of nisin A | Bioactivity of producer relative to nisin A producer (S. aureus SA113): enhanced activity | Zone Diameter (mm) (Lactococcus lactis HP; agarose (1%) GM17 assay, 10 µl cell-free supernatant of overnight producing culture in 4.6 mm wells, L. lactis HP, 30°C): 15.4±0.5 mm | % difference (zone relative to wild type) (Lactococcus lactis HP; agarose assay of supernatants against L. lactis HP, wild type serine = 100): 101% | MIC [6]: 50.28 mg/L and 15 µM | MIC (E. coli 0157-H7 [7]): 25.14 mg/L and 7.5 µM | Killing compared with nisin A (plate counts) (E. coli): greater activity than wildtype nisin A | MIC (E. durans 5133): 0.26 mg/L and 0.078 µM | MIC (S. mitis UCC5000): 8.38 mg/L and 2.5 µM | Killing compared with nisin A (plate counts) (S. typhimurium UK-1): greater activity than wildtype nisin A
